Test results from a compilation of properties of binary mixtures (doi:10.1016/j.jct.2015.07.015).

Assay: xn = mol fraction of the nth substance listed
Conditions: 101 kPa

C=CC[n+]1ccn(C)c1.[Cl-] + O
viscosity [mPa·s]
Conditions	298.15 K	303.15 K	313.15 K	323.15 K	328.15 K	333.15 K	343.15 K	353.15 K	363.15 K	373.15 K
x2 = 0.045	1884	1137	–	232	167	124	73	46.2	31.2	22.21
x2 = 0.091	1416	891	392	196	144	–	64.9	41.8	–	20.53
x2 = 0.126	1090	691	–	164	123	92	56.3	–	–	–
x2 = 0.152	887	580	270	147	108	84	51.7	34.3	24	17.6
x2 = 0.193	–	459	221	121	91	71	45	30.4	21.6	–
x2 = 0.267	–	293	151	86	67.1	53.1	35	–	17.7	–
x2 = 0.335	259	–	101	–	48.6	39.3	26.8	19.2	14.26	10.98

CC(=O)[O-].CC[n+]1ccn(C)c1 + O
viscosity [mPa·s]
Conditions	298.15 K	303.15 K	313.15 K	323.15 K	333.15 K	343.15 K	353.15 K	363.15 K	373.15 K
x2 = 0.072	124	92	55.4	35.4	24.3	17.63	13.21	–	8.19
x2 = 0.102	119	89	53.6	34.5	23.8	17.23	–	–	8.07
x2 = 0.132	112	–	51.1	–	22.9	16.73	–	–	7.86
x2 = 0.188	100	76	–	30.6	–	15.69	–	9.32	–
x2 = 0.266	–	66	41.8	27.7	–	14.44	11	8.67	6.98
x2 = 0.355	75	58	36.9	24.8	17.7	–	–	8	6.47
